{"source": "patent US12679805B2", "about": "“Bioactive substance exhibiting antimalarial activity, and use for same” (RIKEN, priority 2021, dated 2026)", "key": {"HL-60 cells": {"tested_on": "HL-60 cells", "assay": "Cytotoxicity (growth inhibitory activity), HL-60 cells", "type": "cell-based", "conditions": "for IC50: Homo sapiens", "from_the_text": "(§1) Subsequently, the cytotoxicity of DHLC was examined. More specifically, the activity of DHLC to various types of cancer cells (Hela cells, HL-60 cells, MKN74 cells, NB-1 cells, T98G cells) were examined."}, "[1]": {"tested_on": "wild-type Plasmodium falciparum (pf3D7 strain)", "assay": "Antimalarial activity, pLDH Malstat analysis, wild-type Plasmodium falciparum (pf3D7 strain)", "type": "cell-based", "method": "Specifically, first, a wild-type malarial parasite, Plasmodium falciparum (pf3D7 strain) was cultured in a human type-A Rh+ erythrocyte-containing solution prepared such that the hematocrit level was 3% in a hypoxic condition (O2 concentration: 5%, CO2 concentration: 5%). A culture medium used herein was a complete medium (Gibco, RPMI 1640 medium) containing 25 mM N-(2-hydroxyethyl)piperazine-N′-2-ethanesulfonic acid (HEPES), 10 […] glucose, 5 μg/mL gentamicin and 10% bovine serum albumin. Thereafter, DHLC solutions having 16 different concentrations within the range of 0.015 nM to 500 nM as shown in Table 2 were prepared using dimethyl sulfoxide (DMSO). Subsequently, to each of the wells of a 96 well microplate, 100 μl of a culture solution containing Plasmodium falciparum (pf3D7 strain) cultured in accordance with a method as mentioned above, was added, and then, 0.5 μl of a DHLC solution different in concentration was added to each well. Three sample sets were prepared in the same manner by adding 16 DHLC solutions different in concentration to wells, and then, allowed to stand still at 37° C. for 72 hours to expose Plasmodium falciparum (pf3D7 strain) to DHLC. Note that, each well contains the complete medium (RPMI medium), and the malarial parasite concentration was 0.3% and hematocrit level was 2%. Thereafter, the 96 well microplates containing samples were frozen at −80° C. overnight, and then, thawed at room temperature to hemolyze red blood cells. Lactate dehydrogenase (pLDH), which is an intracellular metabolic enzyme of malarial parasite, in the samples contained in individual wells, was stained with a Malstat reagent (Flow Inc.) in accordance with the protocol of Malstat analysis (Am. J. Trop. Med. Hyg. 48(6), 1993, pp. 739-741) known in the art and the absorbance thereof was measured at 620 nm. Based on the results, the infection rates (%) of cells with malarial parasite, at different concentrations of DHLC were calculated. Note that, a positive control used herein was a sample prepared by adding a solution prepared by diluting an existing antimalarial drug, i.e., chloroquine diphosphate, with distilled water, to wild-type Plasmodium falciparum (pf3D7 strain). A negative control used herein was a sample prepared by adding a solution prepared by diluting DMSO with distilled water, to a wild-type Plasmodium falciparum (pf3D7 strain). For measuring a background value, an erythrocyte-containing solution not infected with Plasmodium falciparum, was used."}, "MKN74 cells": {"tested_on": "MKN74 cells", "assay": "Cytotoxicity (growth inhibitory activity), MKN74 cells", "type": "cell-based", "from_the_text": "as §1"}, "T98G cells": {"tested_on": "T98G cells", "assay": "Cytotoxicity (growth inhibitory activity), T98G cells", "type": "cell-based", "from_the_text": "as §1"}, "Hela cells": {"tested_on": "Hela cells", "assay": "Cytotoxicity (growth inhibitory activity), HeLa cells", "type": "cell-based", "conditions": "for IC50: Homo sapiens", "from_the_text": "as §1"}, "NB-1 cells": {"tested_on": "NB-1 cells", "assay": "Cytotoxicity (growth inhibitory activity), NB-1 cells", "type": "cell-based", "conditions": "Homo sapiens, NB1", "from_the_text": "as §1"}, "[2]": {"tested_on": "drug-resistant Plasmodium falciparum (K1)", "assay": "Antimalarial activity against chloroquine-resistant Plasmodium falciparum (K1)", "type": "cell-based", "conditions": "FIG. 1"}, "Plasmodium falciparum": {"tested_on": "Plasmodium falciparum", "conditions": "reported in Non Patent Literature 1; cited from earlier work"}}, "note": "“And” between values parts separate entries of the source, which are not always exact repeats. Identical values can stand only once."}
{"smiles": "C\\C=C(/C=C(C)/C=C/C=C/C=C(\\C)C(=O)C1CC(O)(CCO)NC1=O)C(=O)OC", "note": "(stereo not drawn) [DHLC]", "values": [{"measurement": "IC50", "setting": "HL-60 cells", "value": 3.4, "unit": "µg/mL"}, {"measurement": "pf3D7(%) infection rate of cells with malarial parasite", "setting": "[1]; 0.015 nM, 72 hours", "value": 98.9, "unit": "%"}, {"measurement": "pf3D7(%) infection rate of cells with malarial parasite", "setting": "[1]; 0.03 nM, 72 hours", "value": 109.8, "unit": "%"}, {"measurement": "pf3D7(%) infection rate of cells with malarial parasite", "setting": "[1]; 0.06 nM, 72 hours", "value": 89.4, "unit": "%"}, {"measurement": "pf3D7(%) infection rate of cells with malarial parasite", "setting": "[1]; 0.12 nM, 72 hours", "value": 92.9, "unit": "%"}, {"measurement": "pf3D7(%) infection rate of cells with malarial parasite", "setting": "[1]; 0.24 nM, 72 hours", "value": 77.2, "unit": "%"}, {"measurement": "pf3D7(%) infection rate of cells with malarial parasite", "setting": "[1]; 0.49 nM, 72 hours", "value": 74.1, "unit": "%"}, {"measurement": "pf3D7(%) infection rate of cells with malarial parasite", "setting": "[1]; 0.98 nM, 72 hours", "value": 41.7, "unit": "%"}, {"measurement": "pf3D7(%) infection rate of cells with malarial parasite", "setting": "[1]; 1.95 nM, 72 hours", "value": 28.2, "unit": "%"}, {"measurement": "pf3D7(%) infection rate of cells with malarial parasite", "setting": "[1]; 3.90 nM, 72 hours", "value": 22.9, "unit": "%"}, {"measurement": "pf3D7(%) infection rate of cells with malarial parasite", "setting": "[1]; 7.81 nM, 72 hours", "value": 23.7, "unit": "%"}, {"measurement": "pf3D7(%) infection rate of cells with malarial parasite", "setting": "[1]; 15.63 nM, 72 hours", "value": 13.3, "unit": "%"}, {"measurement": "pf3D7(%) infection rate of cells with malarial parasite", "setting": "[1]; 31.25 nM, 72 hours", "value": 9.6, "unit": "%"}, {"measurement": "pf3D7(%) infection rate of cells with malarial parasite", "setting": "[1]; 62.5 nM, 72 hours", "value": 14.3, "unit": "%"}, {"measurement": "pf3D7(%) infection rate of cells with malarial parasite", "setting": "[1]; 125 nM, 72 hours", "value": 10.2, "unit": "%"}, {"measurement": "pf3D7(%) infection rate of cells with malarial parasite", "setting": "[1]; 250 nM, 72 hours", "value": 8.5, "unit": "%"}, {"measurement": "pf3D7(%) infection rate of cells with malarial parasite", "setting": "[1]; 500 nM, 72 hours", "value": 13.9, "unit": "%"}, {"measurement": "IC50", "setting": "[1]; Plasmodium falciparum, pf3D7 strain, 72 hours, read-out: growth inhibitory activity (IC50 value)", "value": "0.65 nM and 0.00026 µg/mL"}, {"measurement": "antimalarial activity relative to NG-391", "setting": "[1]; versus NG-391 IC50=0.75 μg/ml", "value": "≥ 1000", "unit": "times"}, {"measurement": "antimalarial activity relative to lucilactaene", "setting": "[1]; versus lucilactaene IC50=0.063 μg/ml", "value": "≥ 100", "unit": "times"}, {"measurement": "growth inhibitory activity (IC50 value)", "setting": "MKN74 cells", "value": ">30", "unit": "µg/mL"}, {"measurement": "IC50", "setting": "MKN74 cells; Homo sapiens, MKN-74", "value": "> 30", "unit": "µg/mL"}, {"measurement": "growth inhibitory activity (IC50 value)", "setting": "T98G cells", "value": ">30", "unit": "µg/mL"}, {"measurement": "IC50", "setting": "T98G cells; Homo sapiens", "value": "> 30", "unit": "µg/mL"}, {"measurement": "IC50", "setting": "Hela cells", "value": 21, "unit": "µg/mL"}, {"measurement": "IC50", "setting": "NB-1 cells", "value": 0.34, "unit": "µg/mL"}, {"measurement": "antimalarial activity against drug-resistant Plasmodium falciparum (K1)", "setting": "[2]", "value": "as high as against wild-type Plasmodium falciparum"}]}
{"smiles": "C\\C=C(/C=C(C)/C=C/C=C/C=C(\\C)C(=O)[C@H]1C(=O)N[C@]2(O)CCO[C@H]12)C(=O)O", "note": "[Demethyl lucilactaene]", "values": [{"measurement": "growth inhibitory activity (IC50 value)", "setting": "HL-60 cells", "value": ">30", "unit": "µg/mL"}, {"measurement": "growth inhibitory activity (IC50 value)", "setting": "Hela cells", "value": ">30", "unit": "µg/mL"}]}
{"smiles": "C\\C=C(/C=C(C)/C=C/C=C/C=C(\\C)C(=O)[C@H]1C(=O)N[C@]2(O)CCO[C@H]12)C(=O)OC", "note": "[Lucilactaene]", "values": [{"measurement": "IC50", "setting": "HL-60 cells", "value": 7, "unit": "µg/mL"}, {"measurement": "antimalarial activity IC50", "setting": "Plasmodium falciparum", "value": 0.063, "unit": "µg/mL"}, {"measurement": "antimalarial effect relative to NG-391", "setting": "Plasmodium falciparum", "value": "about 12 times"}, {"measurement": "IC50", "setting": "Hela cells", "value": 10, "unit": "µg/mL"}]}
{"smiles": "C\\C=C(/C=C(C)/C=C/C=C/C=C(\\C)C(=O)[C@]12O[C@H]1C(O)(CCO)NC2=O)C(=O)OC", "note": "(stereo partly drawn) [NG-391]", "values": [{"measurement": "IC50", "setting": "HL-60 cells", "value": 6.6, "unit": "µg/mL"}, {"measurement": "antimalarial activity IC50", "setting": "Plasmodium falciparum", "value": 0.75, "unit": "µg/mL"}, {"measurement": "IC50", "setting": "Hela cells", "value": 5.9, "unit": "µg/mL"}]}
